Test results from ChEMBL document CHEMBL5104137, “The overview of Mitogen-activated extracellular signal-regulated kinase (MEK)-based dual inhibitor in the treatment of cancers” (Bioorg Med Chem, 2022).
One block for each molecule: values may come before it.

How the values were obtained:
[1] = Inhibition of Xenopus laevis Aurora Kinase C
[2] = Cmax in BomTac:NMRI-Foxn1 mouse xenografted with human Calu6 cells harboring KRAS Q61K mutant at 70 mg/kg per week, po via gavage by electrochemo-luminescence analysis; type: ADME, organism-based, Calu-6; design: dose 70 mg/kg, route po; conditions: in vivo
[3] = molecular target: Aurora kinase B-B (Xenopus laevis, UniProt Q6GPL3); test: Inhibition of Xenopus laevis Aurora Kinase B
Chain of Aurora kinase B-B (Q6GPL3 whole entry): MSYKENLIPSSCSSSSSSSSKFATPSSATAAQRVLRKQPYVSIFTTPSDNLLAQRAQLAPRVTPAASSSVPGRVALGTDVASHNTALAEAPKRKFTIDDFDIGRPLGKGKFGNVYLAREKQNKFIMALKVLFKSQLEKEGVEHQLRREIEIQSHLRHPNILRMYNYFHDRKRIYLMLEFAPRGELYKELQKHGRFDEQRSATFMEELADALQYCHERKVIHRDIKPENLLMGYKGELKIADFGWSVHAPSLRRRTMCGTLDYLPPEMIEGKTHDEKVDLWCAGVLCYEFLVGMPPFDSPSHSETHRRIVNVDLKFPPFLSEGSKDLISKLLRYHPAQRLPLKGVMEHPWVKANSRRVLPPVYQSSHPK

[4] = Cmax in BomTac:NMRI-Foxn1 mouse xenografted with human Calu6 cells harboring KRAS Q61K mutant at 10 mg/kg per day, po via gavage by electrochemo-luminescence analysis; type: ADME, organism-based, Calu-6; design: dose 10 mg/kg, route po; conditions: in vivo
[5] = Cmax in BomTac:NMRI-Foxn1 mouse xenografted with human Calu6 cells harboring KRAS Q61K mutant at 70 mg/kg per week, po via gavage measured after 24 hrs by electrochemo-luminescence analysis; type: ADME, organism-based, Calu-6; design: dose 70 mg/kg, time 24 hrs, route po; conditions: in vivo
[6] = Cmax in BomTac:NMRI-Foxn1 mouse xenografted with human Calu6 cells harboring KRAS Q61K mutant at 10 mg/kg per day, po via gavage measured after 24 hrs by electrochemo-luminescence analysis; type: ADME, organism-based, Calu-6; design: time 24 hrs, dose 10 mg/kg, route po; conditions: in vivo
[7] = Inhibition of human MEK using 5-Fl-SGQLIDSMANSFV-NH2 peptide as substrate by FRET assay
[8] = molecular target: Serine/threonine-protein kinase B-raf (Homo sapiens, UniProt P15056); test: Inhibition of wild type human BRAF using 5-Fl-SGQLIDSMANSFV-NH2 peptide as substrate by FRET assay
Chain of Serine/threonine-protein kinase B-raf (Homo sapiens, UniProt P15056) (P15056 whole entry): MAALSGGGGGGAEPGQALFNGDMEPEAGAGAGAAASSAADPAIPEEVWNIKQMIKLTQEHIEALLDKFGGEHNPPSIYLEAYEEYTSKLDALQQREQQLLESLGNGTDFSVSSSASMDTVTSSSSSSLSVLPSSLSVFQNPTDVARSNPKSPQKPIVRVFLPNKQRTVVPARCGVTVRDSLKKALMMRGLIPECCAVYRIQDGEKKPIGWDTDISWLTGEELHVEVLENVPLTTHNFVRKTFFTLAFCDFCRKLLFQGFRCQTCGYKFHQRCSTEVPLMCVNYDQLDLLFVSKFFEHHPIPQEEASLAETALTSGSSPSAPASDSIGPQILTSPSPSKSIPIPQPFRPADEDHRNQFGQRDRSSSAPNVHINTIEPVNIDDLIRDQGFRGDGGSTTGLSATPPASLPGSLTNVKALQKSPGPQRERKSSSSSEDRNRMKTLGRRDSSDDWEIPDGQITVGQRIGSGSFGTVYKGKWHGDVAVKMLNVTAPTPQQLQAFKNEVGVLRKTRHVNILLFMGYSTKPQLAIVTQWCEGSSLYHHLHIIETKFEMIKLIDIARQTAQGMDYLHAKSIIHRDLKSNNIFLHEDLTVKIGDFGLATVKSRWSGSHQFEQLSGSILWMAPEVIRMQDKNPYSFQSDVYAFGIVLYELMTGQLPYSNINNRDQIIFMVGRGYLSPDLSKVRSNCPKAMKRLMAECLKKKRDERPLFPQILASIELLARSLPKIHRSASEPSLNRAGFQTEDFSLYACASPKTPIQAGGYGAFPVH

[9] = molecular target: Serine/threonine-protein kinase B-raf (Homo sapiens, UniProt P15056, V600E); test: Inhibition of human BRAF V600E mutant using 5-Fl-SGQLIDSMANSFV-NH2 peptide as substrate by FRET assay
Chain of Serine/threonine-protein kinase B-raf (Homo sapiens, UniProt P15056, V600E) (P15056 2-766 V600E limits assumed): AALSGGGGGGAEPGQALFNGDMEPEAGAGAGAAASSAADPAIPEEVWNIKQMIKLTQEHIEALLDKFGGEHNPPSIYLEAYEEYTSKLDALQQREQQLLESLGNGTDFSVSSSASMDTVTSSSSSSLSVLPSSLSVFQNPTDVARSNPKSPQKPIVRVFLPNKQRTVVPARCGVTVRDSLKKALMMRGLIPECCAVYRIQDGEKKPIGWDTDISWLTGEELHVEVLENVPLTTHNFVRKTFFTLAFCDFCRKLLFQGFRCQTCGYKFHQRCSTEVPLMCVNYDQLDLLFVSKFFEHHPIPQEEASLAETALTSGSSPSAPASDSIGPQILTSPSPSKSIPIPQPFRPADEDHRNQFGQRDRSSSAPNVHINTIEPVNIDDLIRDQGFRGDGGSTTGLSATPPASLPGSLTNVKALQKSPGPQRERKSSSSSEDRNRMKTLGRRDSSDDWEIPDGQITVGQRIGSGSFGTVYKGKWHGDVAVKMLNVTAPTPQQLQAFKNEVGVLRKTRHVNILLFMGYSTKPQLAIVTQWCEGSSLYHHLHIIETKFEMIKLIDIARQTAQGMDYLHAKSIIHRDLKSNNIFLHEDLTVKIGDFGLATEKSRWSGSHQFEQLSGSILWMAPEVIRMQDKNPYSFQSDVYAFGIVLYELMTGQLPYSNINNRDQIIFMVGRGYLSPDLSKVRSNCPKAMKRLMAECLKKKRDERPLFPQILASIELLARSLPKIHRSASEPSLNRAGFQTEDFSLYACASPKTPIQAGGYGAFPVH

[10] = system: SK-MEL-2; test: Antiproliferative activity against human SK-MEL-2 cells harboring NRAS Q61R mutant assessed as cell growth inhibition measured after 72 hrs by WST-8 assay; type: functional, cell-based; conditions: SK-MEL-2, 72 h
[11] = system: SK-MEL-28; test: Antiproliferative activity against human SK-MEL-28 cells harboring BRAF V600E mutant assessed as cell growth inhibition measured after 72 hrs by WST-8 assay; type: functional, cell-based; conditions: SK-MEL-28, 72 h
[12] = system: MIA PaCa-2; test: Antiproliferative activity against human MIA PaCa-2 cells harboring […] mutant assessed as cell growth inhibition measured after 72 hrs by WST-8 assay; type: functional, cell-based; conditions: MIA PaCa-2, 72 h
[13] = system: SW480; test: Antiproliferative activity against human SW480 cells harboring […] mutant assessed as cell growth inhibition measured after 72 hrs by WST-8 assay; type: functional, cell-based; conditions: SW480, 72 h
[14] = system: HCT-116; test: Antiproliferative activity against human HCT-116 cells harboring […] mutant assessed as cell growth inhibition measured after 72 hrs by WST-8 assay; type: functional, cell-based; conditions: HCT-116, 72 h
[15] = Antiproliferative activity against human CT-TC cells harboring HRAS Q61K mutant assessed as cell growth inhibition measured after 72 hrs by WST-8 assay; type: functional, cell-based
[16] = system: MOLM-13; test: Antiproliferative activity against human MOLM13 cells harboring FLT3-ITD mutant assessed as cell growth inhibition by Trypan blue staining based assay; type: functional
[17] = system: MV4-11; test: Antiproliferative activity against human MV4-11 cells harboring FLT3-ITD mutant assessed as cell growth inhibition by trypan blue staining based assay; type: functional
[18] = system: BaF3; test: Antiproliferative activity against […] cells harboring D835Y mutant assessed as cell growth inhibition by trypan blue staining based assay; type: functional; conditions: Mus musculus
[19] = system: BaF3; test: Antiproliferative activity against […] cells harboring D835G mutant assessed as cell growth inhibition by trypan blue staining based assay; type: functional; conditions: Mus musculus

Compound: CCNC(=O)C#Cc1ccc2c(c1)NC(=O)/C2=C(\Nc1ccc(CN(C)C)cc1)c1ccccc1
IC50 [1]: 15 nM | Cmax [2]: 2700 nM | IC50 [3]: 3 nM | Cmax [4]: 380 nM | Cmax [5]: 460 nM | Cmax [6]: 13 nM

IC50 [7]: 160 nM | IC50 [8]: 19 nM | IC50 [9]: 8.2 nM | IC50 [10]: 28 nM | IC50 [11]: 65 nM | IC50 [12]: 40 nM | IC50 [13]: 46 nM | IC50 [14]: 277 nM
Compound: CNS(=O)(=O)Nc1nccc(Cc2c(C)c3ccc(Oc4ncccn4)cc3oc2=O)c1F [AVUTOMETINIB]
IC50 [15]: 360 nM

Compound: CCNc1cc(O)c2c(c1)/C=C/C[C@H](O)[C@H](O)C(=O)/C=C\[C@@H](C)[C@H](C)OC2=O [E-6201]
IC50 [16]: 5 nM | IC50 [17]: 2 nM | IC50 [18]: 26 nM | IC50 [19]: 4.6 nM
